# Experimental data as given in article PMC6032411, “Synthesis and Biological Evaluation of Zeise’s Salt Derivatives with Acetylsalicylic Acid Substructure” (International Journal of Molecular Sciences, 2018).
# Assays:
# [1] = tested on: MCF-7 breast cancer cells; experiment: Antiproliferative effects, crystal violet cell biomass assay, MCF-7; format: cell-based; settings: for IC50: 72 h incubation, crystal violet
# Experimental: (§1) The growth inhibitory effects of ASA, Zeise’s salt as well as the thereof derived complexes 1a–4a were investigated in vitro against the HT-29 and the MCF-7 cell lines. Thereby, an already published crystal violet assay was employed, in which the cell biomass reduced by the substances was determined as parameter. Cisplatin was applied as positive control.
# (§2) The HT-29 colon carcinoma and the MCF-7 breast cancer cell lines were obtained from the cell line service (CLS, Eppelheim, Germany). The HT-29 and the MCF-7 cells were cultivated as a monolayer in Dulbecco’s Modified Eagle Medium (DMEM) containing glucose (4.5 g/L) and lacking phenol red (GE Healthcare, Little Chalfont, UK), supplemented with fetal calf serum (FCS; 10%; Biochrom) and L-glutamine (584 mg/L; GE Healthcare). The cells were cultured in a humidified atmosphere (5% CO2/95% air) at 37 °C and were passaged regularly twice a week. The cell lines were characterized by typing short tandem repeats and routinely monitored for mycoplasma infection.
# (§3) The effects of the newly synthesized substances on the cell biomass were determined in vitro while employing a crystal violet assay. The testing was performed following a modified protocol, as previously published. Exponentially growing HT-29 and MCF-7 cells were seeded in 96-well tissue culture plates with a density of 3 × 10^3 and 2 × 10^3 cells, respectively, in 100 µL of completed DMEM per well in quadruples. The plates were kept in a humidified atmosphere (5% CO2/95% air) at 37 °C for 24 h prior to the addition of completed medium containing the vehicle DMF, the positive control Cisplatin, and the compounds to be tested, respectively. After 72 h of incubation, the medium was removed, the cells were washed with PBS and fixed using a solution of glutaraldehyde in PBS (1%, v/v). The cell biomass was examined by staining the chromatin of adherent cells with crystal violet, extraction of the stain with ethanol (70%, v/v) and following measurement of absorbance (λ = 590 nm). The cell viability is given as percentage of cell viability of the vehicle treated control, which was set to 100%. The IC50 values represent the mean ± standard error of mean of ≥2 independent experiments and they were calculated with Prism 7.0 (GraphPad, San Diego, CA, USA) using nonlinear regression and decadal logarithm of the inhibitor versus variable slope equation. The top constraint was set to 100%.
# ovine COX-2 = target: T1, ovine COX-2 (Ovis aries, UniProt P79208); experiment: COX-2 isoenzyme inhibition (COX Inhibitor Screening Assay, enzyme immunoassay); format: biochemical; settings: for COX-2 inhibition: 10 µM, incubation 10 min, isolated enzyme
# T1 construct: purchased Cayman Chemicals
# T1 sequence (P79208 17-603): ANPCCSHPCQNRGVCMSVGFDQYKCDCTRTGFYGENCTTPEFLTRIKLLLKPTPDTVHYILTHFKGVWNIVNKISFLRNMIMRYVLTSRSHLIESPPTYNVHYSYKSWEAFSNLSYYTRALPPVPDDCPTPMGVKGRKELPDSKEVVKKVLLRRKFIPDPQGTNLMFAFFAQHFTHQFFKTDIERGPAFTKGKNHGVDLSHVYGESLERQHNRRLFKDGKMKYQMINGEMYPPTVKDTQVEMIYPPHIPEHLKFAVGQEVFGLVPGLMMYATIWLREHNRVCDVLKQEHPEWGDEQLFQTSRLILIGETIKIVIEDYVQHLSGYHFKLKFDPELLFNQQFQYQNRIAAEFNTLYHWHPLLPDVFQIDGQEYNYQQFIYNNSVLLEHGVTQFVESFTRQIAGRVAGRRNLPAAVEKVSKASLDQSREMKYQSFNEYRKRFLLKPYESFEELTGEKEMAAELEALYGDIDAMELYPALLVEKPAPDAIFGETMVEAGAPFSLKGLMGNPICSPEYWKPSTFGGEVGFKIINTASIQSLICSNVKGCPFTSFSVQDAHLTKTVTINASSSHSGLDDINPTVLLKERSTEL
# Experimental: (§4) The impact of the compounds (10 µM) to inhibit the isoenzymes COX-1 and COX-2, respectively, was investigated (Figure 5).
# (§5) The inhibition of both isolated isoenzymes, ovine COX-1 and ovine COX-2, respectively, were investigated at a concentration of 10 µM of the respective substances while employing an enzyme immunoassay (COX Inhibitor Screening Assay, Cayman Chemicals, Ann Arbor, MI, USA). The conduction of the assay was performed following the manufacturer’s protocol. Thereby, the isoenzymes were incubated with the particular compounds for exactly 10 min. The values express the mean of duplicate determinations and they represent the mean ± standard deviation of ≥2 independent experiments. The untreated control was set to 0% inhibition.
# (§6) Figure 5 Inhibition of isolated ovine COX-1 and COX-2. Values are given as % COX inhibition calculated from initial activity of vehicle treated enzyme and represent the mean ± standard deviation of ≥2 independent experiments.
# ovine COX-1 = target: T2, ovine COX-1 (Ovis aries, UniProt P05979); experiment: COX-1 isoenzyme inhibition (COX Inhibitor Screening Assay, enzyme immunoassay); format: biochemical; settings: 10 µM, incubation 10 min, isolated enzyme
# T2 construct: purchased Cayman Chemicals
# T2 sequence (P05979 25-600): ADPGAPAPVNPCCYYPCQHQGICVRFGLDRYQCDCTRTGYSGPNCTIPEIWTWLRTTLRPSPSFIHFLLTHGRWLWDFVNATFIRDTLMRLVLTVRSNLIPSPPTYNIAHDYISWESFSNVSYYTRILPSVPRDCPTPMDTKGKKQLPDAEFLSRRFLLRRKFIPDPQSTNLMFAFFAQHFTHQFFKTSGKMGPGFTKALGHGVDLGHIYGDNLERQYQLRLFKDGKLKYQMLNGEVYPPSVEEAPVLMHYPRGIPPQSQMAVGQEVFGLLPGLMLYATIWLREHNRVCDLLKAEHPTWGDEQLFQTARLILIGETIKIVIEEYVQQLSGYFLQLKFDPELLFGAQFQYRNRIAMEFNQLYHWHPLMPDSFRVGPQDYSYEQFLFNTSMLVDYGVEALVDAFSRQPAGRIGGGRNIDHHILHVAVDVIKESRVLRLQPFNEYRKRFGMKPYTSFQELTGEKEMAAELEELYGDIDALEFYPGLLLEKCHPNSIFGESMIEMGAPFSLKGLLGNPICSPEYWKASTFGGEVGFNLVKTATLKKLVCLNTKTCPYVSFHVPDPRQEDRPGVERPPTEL
# Experimental: as §4, §5, §6
# [2] = tested on: HT-29 colon carcinoma cells; experiment: Antiproliferative effects, crystal violet cell biomass assay, HT-29; format: cell-based; settings: for IC50: 72 h incubation, crystal violet
# Experimental: as §1, §2, §3
# [3] = Evaluation of stability by capillary electrophoresis; format: physicochemical
# Description: Capillary electrophoresis (CE) was employed in order to determine the stability of the anionic platinum(II) complexes in aqueous media. Therefore, a method was established that allowed the detection of the respective complex and possible degradation products in a short period of time (for further information on the setup see Section 4). Methanol was chosen as a non-coordinating co-solvent for the sample solutions (final amount of methanol: 50%) in order to guarantee the solubility of decomposition products. In contrast to HPLC analysis, it was possible to separate the platinum complex (tm = 6.3 min) from the free ligand (tm = 4.4 min) using a 50 mM sodium tetraborate solution (pH = 9.3) as the background electrolyte (temperature: 25 °C; UV-detection: 230 nm; capillary: fused silica 64.5 cm × 75 µm, effective length 56 cm; 20 kV). […] The reactions followed pseudo-first order kinetics (R^2 ≥ 0.99) under the experimental conditions that were implemented.
# A 50 mM sodium tetraborate solution with a pH of 9.3 (adjusted with 1 M NaOH solution) was used as the background electrolyte (BGE). Prior to the first utilization new capillaries were washed with 1 M NaOH solution (45 min), water (45 min) and BGE (45 min). Samples were injected into the capillary via hydrodynamic mode (50 mbar for 2 s). The capillary was thermostated at 25 °C, whereas the autosampler was kept at 37 °C by an external water bath. The separation voltage was 20 kV and the detection wavelength was set to 230 nm. The required run time was 10 min. The capillary was flushed consecutively with 0.1 M NaOH solution (3 min), water (3 min), and BGE (5 min) before each measurement. For the purpose of stability testing, the complexes were dissolved in methanol and diluted 1:1 (v/v) with water, 1.8% aqueous NaCl solution, or double-concentrated PBS to a final concentration of 1 mM. Every experiment was performed in triplicate. The half-lives are presented as mean ± standard deviation. All of the samples, buffers, and washing solutions were membrane filtered (0.22 µm porosity) and degassed by ultrasonication prior to usage.
# [4] = design: method as in doi:10.1002/zaac.19603050315; settings: degrades in a redox reaction building acetaldehyde and Pt(0); cited from earlier work
# [5] = Stability in other media (aqueous conditions, cell culture medium, DMSO); format: physicochemical; settings: degraded immediately after addition
# [6] = methanol/water 1:1, 1 mM, 37 °C
# [7] = up to a concentration of 100 µM
stability in cell culture medium [5],Compound,IC50 [1],COX-2 inhibition (ovine COX-2),COX-1 inhibition (ovine COX-1),IC50 [2],"recovery of the intact complex ([3]; 154 mM Cl− in 50% methanol/water, after 168 h)","half-live (τ1/2) ([3]; PBS pH 7.4 in methanol/water, degraded to Pt-Butene-SA)","half-live (τ1/2) [3, 6]","stability in methanol ([3]; methanol, 48 h)",stability under aqueous conditions [4],"IC50 ([1]; Homo sapiens, MCF7)","antiproliferative activity against MCF-7 [1, 7]",inhibition at 10 µM (ovine COX-2; read-out: COX-2 inhibition),"IC50 ([2]; Homo sapiens, HT-29)","antiproliferative activity against HT-29 [2, 7]"
,Potassium {trichlorido[η^2-(but-3-en-1-yl)-2-acetoxybenzoate]platinate(II)} [Compound 2a],30.1 ± 1.5 µM,28.7%,70.0%,31.4 ± 0.4 µM,80.3 ± 3.2%,7.95 ± 0.09 h,69.6 ± 3.0 h,,,,,,,
,Potassium {trichlorido[η^2-(prop-2-en-1-yl)-2-acetoxybenzoate]platinate(II)} [Compound 1a],≥ 50 µM,17.4%,67.3%,49.7 ± 1.8 µM,,,0.595 ± 0.01 h,stable,,,,,,
not stable,"C=C.[Cl-].[Cl-].[Cl-].[K+].[Pt+2] [Zeise’s salt, potassium trichlorido[ethylene]platinate(II)]",≥ 50 µM,11.3%,83.8%,≥ 50 µM,,,,,very unstable,,,,,
,"N.N.[Cl][Pt][Cl] [Cisplatin, reference compound]",3.7 ± 0.3 µM,,,2.6 ± 0.1 µM,,,,,,,,,,
,"CC(=O)Oc1ccccc1C(=O)O [ASA, acetylsalicylic acid]",,,29.2%,,,,,,,≥ 50 µM,inactive,1%,≥ 50 µM,inactive
,Potassium {trichlorido[η^2-(pent-4-en-1-yl)-2-acetoxybenzoate]platinate(II)} [Compound 3a],37.4 ± 2.5 µM,15.3%,93.8%,44.2 ± 3.4 µM,,,73.5 ± 4.7 h,,,,,,,
,Potassium {trichlorido[η^2-(hex-5-en-1-yl)-2-acetoxybenzoate]platinate(II)} [Compound 4a],43.7 ± 5.7 µM,33.0%,96.6%,41.4 ± 0.3 µM,,,55.4 ± 4.0 h,,,,,,,
